Measurements: patent publication US20250073234A1, “COMBINATION THERAPIES INCLUDING PARP1 INHIBITORS” (Cornell University, priority 2022, published 2025)

How the values were obtained:
[1] = tested on: p62 (SQSTM1) in WPMY-1 cells; assay: p62/SQSTM1 expression in WPMY-1 stromal fibroblasts (immunoblot, qPCR); format: cell-based, human
Excerpt: To knock out PARP-1 in WPMY-1 cells, single-guide RNA sequences targeting PARP-1 exon2 were purchased from Synthego and transduced into WPMY-1 cells with recombinant Streptococcus pyogenes Cas9 protein (Truecut Cas9 Protein v2, Thermo), using the Neon Transfection System 1 (Invitrogen) following the manufacturer's protocol and single clones were expanded and screened by protein immunoblotting. To perform AP1-A binding site editing in the SQSTM promoter in WPMY-1 cells, single-guide RNA sequences targeting the human AP1-A binding site (Synthego) was transduced into cells with a Cas9 protein and a single-stranded donor oligonucleotide (ssODN, IDT) using Neon Electroporation System. Single clones were expanded and screened for AP1-A editing by Sanger sequencing. A point mutation to disrupt the API enhancer element in the p62 promoter was introduced by Site Directed Mutagenesis (Stratagene). Knockdown of MCT1, MCT4, FOS, PARP1, PARP2, CD38, ATG5, and SIRT1-7 genes in WPMY-1 cells were achieved by siRNA transfection using Lipofectamine RNAiMAX Transfection Reagent (Invitrogen). Transient overexpression was achieved by transfection using X-tremeGENE HP transfection reagent (Roche). Transfected cells were examined 48 hours after transfection. Establishing stably GFP or RFP expressing cells was achieved by lentivirus-mediated transduction. Lentivirus were produced in HEK293T cells using X-tremeGENE HP transfection reagent (Roche). Virus-containing supernatants were collected 48, 72 and 96 hours after transfection, filtered to eliminate cells, and supplemented with 8 μg/ml polybrene. Cells were infected with three rounds of viral supernatants and selected with puromycin (3 μg/ml). For autophagy or proteasome inhibition, WPMY-1 cells were treated for 12 hours with 100 nM bafilomycin Al or 12 hours with 20 μM of MG132, respectively, or vehicle (DMSO). […] For MCT1 inhibition, WPMY-1 cells were treated for 48 hours with 10 μM of AZD3965. For cJUN inhibition, WPMY-1 cells were treated for 48 hours with 10 μM of SP600125. For calpains and caspases inhibition, WPMY-1 cells were treated for 48 hours with 1-20 μM of Calpeptin (Tocris) or z-VAD-FMK (Tocris), respectively. For protein synthesis inhibition, WPMY-1 cells were treated with 50 μg/ml of cycloheximide (Sigma). Conditioned media (CM) was generated by collecting supernatant on day 3. CM was transferred to a 15 ml BD Falcon tube and centrifuged at 1300 rpm for 10 minutes. The supernatant was sterile filtered using a […] (Millex-GV) with a 10 ml syringe barrel. The samples were stored at […] for future experiments. Fractionation of the CM was achieved using Amicon Ultra centrifugal filters (3KUltracel, Millipore). The supernatant was centrifuged at 4000 rpm for 1 hour. The supernatant fraction that was >3 kDa remained above the filter and that which was <3 kDa passed through to the lower chamber. The >3-kDa fraction was resuspended in DMEM to the pre-filtration volume.

WPMY-1 cells = assay: qPCR of CAF / stromal activation markers in WPMY-1 cells; format: cell-based, human
Excerpt: To knock out PARP-1 in WPMY-1 cells, single-guide RNA sequences targeting PARP-1 exon2 were purchased from Synthego and transduced into WPMY-1 cells with recombinant Streptococcus pyogenes Cas9 protein (Truecut Cas9 Protein v2, Thermo), using the Neon Transfection System 1 (Invitrogen) following the manufacturer's protocol and single clones were expanded and screened by protein immunoblotting. To perform AP1-A binding site editing in the SQSTM promoter in WPMY-1 cells, single-guide RNA sequences targeting the human AP1-A binding site (Synthego) was transduced into cells with a Cas9 protein and a single-stranded donor oligonucleotide (ssODN, IDT) using Neon Electroporation System. Single clones were expanded and screened for AP1-A editing by Sanger sequencing. A point mutation to disrupt the API enhancer element in the p62 promoter was introduced by Site Directed Mutagenesis (Stratagene). Knockdown of MCT1, MCT4, FOS, PARP1, PARP2, CD38, ATG5, and SIRT1-7 genes in WPMY-1 cells were achieved by siRNA transfection using Lipofectamine RNAiMAX Transfection Reagent (Invitrogen). Transient overexpression was achieved by transfection using X-tremeGENE HP transfection reagent (Roche). Transfected cells were examined 48 hours after transfection. Establishing stably GFP or RFP expressing cells was achieved by lentivirus-mediated transduction. Lentivirus were produced in HEK293T cells using X-tremeGENE HP transfection reagent (Roche). Virus-containing supernatants were collected 48, 72 and 96 hours after transfection, filtered to eliminate cells, and supplemented with 8 μg/ml polybrene. Cells were infected with three rounds of viral supernatants and selected with puromycin (3 μg/ml). For autophagy or proteasome inhibition, WPMY-1 cells were treated for 12 hours with 100 nM bafilomycin Al or 12 hours with 20 μM of MG132, respectively, or vehicle (DMSO). For PARP1 inhibition, WPMY-1 cells were treated with PJ34 (2 days) or Olaparib (4 days) at the doses indicated in each experiment. For MCT1 inhibition, WPMY-1 cells were treated for 48 hours with 10 μM of AZD3965. For cJUN inhibition, WPMY-1 cells were treated for 48 hours with 10 μM of SP600125. For calpains and caspases inhibition, WPMY-1 cells were treated for 48 hours with 1-20 μM of Calpeptin (Tocris) or z-VAD-FMK (Tocris), respectively. For protein synthesis inhibition, WPMY-1 cells were treated with 50 μg/ml of cycloheximide (Sigma). Conditioned media (CM) was generated by collecting supernatant on day 3. CM was transferred to a 15 ml BD Falcon tube and centrifuged at 1300 rpm for 10 minutes. The supernatant was sterile filtered using a […] (Millex-GV) with a 10 ml syringe barrel. The samples were stored at […] for future experiments. Fractionation of the CM was achieved using Amicon Ultra centrifugal filters (3KUltracel, Millipore). The supernatant was centrifuged at 4000 rpm for 1 hour. The supernatant fraction that was >3 kDa remained above the filter and that which was <3 kDa passed through to the lower chamber. The >3-kDa fraction was resuspended in DMEM to the pre-filtration volume.
Total RNA from mouse tissues, cells and cultured organoids was extracted using the TRIZOL reagent (Invitrogen) and the RNeasy Mini Kit (QIAGEN), followed by DNase treatment. After quantification using a Nanodrop 1000 spectrophotometer (Thermo Scientific), RNA was either processed for RNA-seq or reverse-transcribed using random primers and MultiScribe Reverse Transcriptase (Applied Biosystems). Gene expression was analyzed by amplifying 20 ng of the complementary DNA using the CFX96 Real Time PCR Detection System with SYBR Green Master Mix (BioRad) and primers described in Table S1. The amplification parameters were set at 95° C. for 30 seconds, 58° C. for 30 seconds, and 72° C. for 30 seconds (40 cycles total). Gene expression values for each sample were normalized to the 18s RNA.

SMILES	rescue of lactate-induced reduction in p62 ([1]; lactate-treated WPMY-1 cells, 48 h, NAD 150 μM, NR 200 μM)	lactate-induced expression of CAF activation markers (WPMY-1 cells; lactate plus NAD+, 48 h)	SQSTM1 mRNA levels ([1]; WPMY-1 cells, basal and ADT conditions)	p62 expression (protein, SQSTM1 mRNA) ([1]; WPMY-1 cells, PJ34 24 h, Olaparib 48 h)	CAF markers (ACTA2, SFRP1, TGFB, MMP9, HA synthases) (WPMY-1 cells; Olaparib, basal and ADT conditions)	Has1 and Has3 expression (WPMY-1 cells; basal and ADT conditions)	Tgfb1 levels (WPMY-1 cells; basal and ADT conditions)	SPINK1 levels (WPMY-1 cells; human prostate cells, ADT conditions)
NC(=O)c1ccc[n+]([C@@H]2O[C@H](COP(=O)([O-])OP(=O)(O)OC[C@H]3O[C@@H](n4cnc5c(N)ncnc54)[C@H](O)[C@@H]3O)[C@@H](O)[C@H]2O)c1 [NAD^+]	completely rescued the lactate-induced reduction in p62	reverted						
O=C(c1cc(Cc2n[nH]c(=O)c3ccccc23)ccc1F)N1CCN(C(=O)C2CC2)CC1 [Olaparib]			reduced SQSTM1 mRNA levels	reduced the expression of p62 in a dose-dependent manner	upregulated CAF markers	upregulated	increased levels of Tgfb1	highly upregulated
